One assay deals with TRPM3. Conditions: rat pain model; Chen L et al. 2014; cited from earlier work.
Assay [1] deals with mouse TRPM3α2 (mTRPM3) ion channel (Mus musculus (Mouse), UniProt J9SQF3). In words: TRPM3 ion channel driven Ca2+ uptake, Fluo-4 AM assay, mTRPM3alpha2 overexpressing flip-in HEK293 cells stimulated with pregnenolone sulfate. Format: cell-based. Put shortly:
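Flip-in HEK293 cells loaded with Fluo-4 AM were added to plates holding compound plus 50 μM pregnenolone sulfate in Ca2+-containing Krebs buffer. Fluorescence (ex 485/em 535 nm) read directly after cell addition; % inhibition relative to PS-stimulated vehicle and positive-control inhibitor.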

Where [2] appears, read: PS (50 μM) stimulated, cpds. 500-599.
The mark [3] stands for this setting: PS (50 μM) stimulated, cpd 001-199.
Setting [4] is: PS (50 μM) stimulated, cpds. 667-751.
The mark [5] stands for this setting: PS (50 μM) stimulated, cpds. 400-499.
Where [6] appears, read: PS (50 μM) stimulated, cpds. 608-666.

Consider 35 compounds from patent publication US12209081B2 (Katholieke Universiteit Leuven, priority 2020, dated 2025).

Chain of mouse TRPM3α2 (mTRPM3) ion channel (J9SQF3 other isoform, or with tags, fused parts or gaps): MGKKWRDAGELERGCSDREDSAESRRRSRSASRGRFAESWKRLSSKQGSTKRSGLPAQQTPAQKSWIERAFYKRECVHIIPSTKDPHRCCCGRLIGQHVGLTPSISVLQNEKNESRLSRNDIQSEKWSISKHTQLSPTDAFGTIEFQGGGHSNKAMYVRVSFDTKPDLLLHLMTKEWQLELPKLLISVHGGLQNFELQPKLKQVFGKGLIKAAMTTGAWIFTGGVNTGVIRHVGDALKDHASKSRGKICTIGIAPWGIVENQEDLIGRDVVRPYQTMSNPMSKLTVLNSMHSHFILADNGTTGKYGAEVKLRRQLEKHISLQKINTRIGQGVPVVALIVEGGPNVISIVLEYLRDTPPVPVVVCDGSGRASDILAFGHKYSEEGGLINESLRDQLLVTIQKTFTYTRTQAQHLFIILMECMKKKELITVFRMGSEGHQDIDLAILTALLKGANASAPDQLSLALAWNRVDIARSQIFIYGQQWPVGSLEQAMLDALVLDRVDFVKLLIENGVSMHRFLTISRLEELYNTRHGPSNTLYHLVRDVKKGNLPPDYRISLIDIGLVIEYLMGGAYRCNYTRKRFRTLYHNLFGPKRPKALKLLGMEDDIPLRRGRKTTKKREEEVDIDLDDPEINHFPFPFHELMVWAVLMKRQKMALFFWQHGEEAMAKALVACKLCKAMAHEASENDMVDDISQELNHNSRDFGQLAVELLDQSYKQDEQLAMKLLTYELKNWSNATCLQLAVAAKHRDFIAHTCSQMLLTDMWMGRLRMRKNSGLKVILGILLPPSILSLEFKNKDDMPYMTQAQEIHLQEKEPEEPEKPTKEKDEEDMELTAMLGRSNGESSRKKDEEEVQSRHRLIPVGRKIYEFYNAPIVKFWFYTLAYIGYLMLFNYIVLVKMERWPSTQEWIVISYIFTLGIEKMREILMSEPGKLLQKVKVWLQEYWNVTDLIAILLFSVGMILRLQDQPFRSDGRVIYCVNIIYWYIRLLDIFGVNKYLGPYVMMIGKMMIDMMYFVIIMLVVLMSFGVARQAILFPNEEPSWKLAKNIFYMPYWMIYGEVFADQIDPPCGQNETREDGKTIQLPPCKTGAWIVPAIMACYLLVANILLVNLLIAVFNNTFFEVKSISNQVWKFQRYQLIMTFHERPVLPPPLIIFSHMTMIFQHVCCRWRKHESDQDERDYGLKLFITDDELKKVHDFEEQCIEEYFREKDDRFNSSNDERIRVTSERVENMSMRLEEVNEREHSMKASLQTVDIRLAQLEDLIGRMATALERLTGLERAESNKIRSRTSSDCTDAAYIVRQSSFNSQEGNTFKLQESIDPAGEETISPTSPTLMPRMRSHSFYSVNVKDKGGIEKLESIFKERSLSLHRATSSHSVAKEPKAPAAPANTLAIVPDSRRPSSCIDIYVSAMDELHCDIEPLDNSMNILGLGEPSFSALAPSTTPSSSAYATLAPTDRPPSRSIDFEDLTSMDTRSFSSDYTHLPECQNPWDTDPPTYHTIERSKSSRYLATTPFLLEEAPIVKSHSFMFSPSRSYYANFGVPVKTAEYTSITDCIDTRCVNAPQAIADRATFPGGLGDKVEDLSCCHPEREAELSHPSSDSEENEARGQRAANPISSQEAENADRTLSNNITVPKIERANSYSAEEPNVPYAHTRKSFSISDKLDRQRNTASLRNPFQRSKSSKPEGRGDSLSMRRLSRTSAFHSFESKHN

With `O=C1C[C@@H](c2ccc(O)cc2)Oc2cc(O)ccc21` [Liquiritigenin], the “mechanical and cold hyperalgesia” value in the assay with TRPM3 was “decrease mechanical and cold hyperalgesia”.
The compound `Cc1ncccc1COc1ccc2oc(C)c(C(=O)NC3CCNCC3(F)F)c2c1` (single isomer, unassigned) [cpd 547-En 1] registered an IC50 in assay [1] (setting [2]) below 1 µM.
Take `Cc1oc2ccc(OCc3cccnc3C(F)(F)F)cc2c1C(=O)NC1CCOC1` (single isomer, unassigned) [cpd 148-En 1]: the IC50 in assay [1] (setting [3]) is below 1 µM.
For the compound `Cc1ncsc1COc1ccc2oc(C(F)F)c(C(=O)N[C@@H](CO)C(N)=O)c2c1` [compound 742, (S)-N-(1-amino-3-hydroxy-1-oxopropan-2-yl)-2-(difluoromethyl)-5-((4-methylthiazol-5-yl)methoxy)benzofuran-3-carboxamide], in assay [1] (setting [4]), the IC50 is below 1 µM.
In turn, `CCOc1ncccc1COc1ccc2oc(C)c(C(=O)NC3CCNCC3(F)F)c2c1` (single isomer, unassigned) [cpd 207-En 1] registered an IC50 in assay [1] (PS 50 μM, cpds 200-299) below 1 µM.
`Cc1oc2ccc(OCc3c(Cl)cnn3C(C)C)cc2c1C(=O)N[C@@H](CO)C(N)=O` [compound 672, (S)-N-(1-amino-3-hydroxy-1-oxopropan-2-yl)-5-((4-chloro-1-isopropyl-1H-pyrazol-5-yl)methoxy)-2-methylbenzofuran-3-carboxamide]: the IC50 in assay [1] (setting [4]) was below 1 µM.
As for `Cc1oc2ccc(OCC3CCOCC3)cc2c1C(=O)O` [compound 015, 2-methyl-5-((tetrahydro-2H-pyran-4-yl)methoxy)benzofuran-3-carboxylic acid], the IC50 in assay [1] (setting [3]) is above 20 µM.
In assay [1] (setting [2]), `Cc1ncsc1COc1ccc2oc(C)c(C(=O)NC3CCNCC3(F)F)c2c1F` (single isomer, unassigned) [cpd 562-En 1] registered an IC50 below 1 µM.
`Cc1oc2ccc(OCc3ncccc3F)cc2c1C(=O)NC1(CO)CCOCC1` [compound 352, 5-((3-fluoropyridin-2-yl)methoxy)-N-(4-(hydroxymethyl)tetrahydro-2H-pyran-4-yl)-2-methylbenzofuran-3-carboxamide]: the IC50 in assay [1] (PS 50 μM, cpds 300-399) is below 1 µM.
`CNC(=O)[C@H](CO)NC(=O)c1c(C)oc2ccc(OCc3scnc3C)cc12` [compound 306, (S)-N-(3-hydroxy-1-(methylamino)-1-oxopropan-2-yl)-2-methyl-5-((4-methylthiazol-5-yl)methoxy)benzofuran-3-carboxamide] registered an IC50 in assay [1] (PS 50 μM, cpds 300-399) below 1 µM.
In assay [1] (setting [5]), `Cc1ncc(COc2ccc3oc(C)c(C(=O)NC(Cn4cncn4)C(N)=O)c3c2)s1` (single isomer, unassigned) [432-En 2, N-(1-amino-1-oxo-3-(1H-1,2,4-triazol-1-yl)propan-2-yl)-2-methyl-5-((2-methylthiazol-5-yl)methoxy)benzofuran-3-carboxamide] registered an IC50 below 1 µM.
`Cc1cc2oc(C)c(C(=O)NC3CCNCC3(F)F)c2cc1OCc1cccnc1C(F)(F)F` (single isomer, unassigned) [179-En 1, N-(3,3-difluoropiperidin-4-yl)-2,6-dimethyl-5-((2-(trifluoromethyl)pyridin-3-yl)methoxy)benzo-furan-3-carboxamide] had an IC50 in assay [1] (setting [3]) of 1 to 20 µM.
Compound `Cc1oc2ccc(OCc3cccnc3)cc2c1C(=O)NC1CCNCC1(F)F` (single isomer, unassigned) [cpd 558-En 1] came in with an IC50 in assay [1] (setting [2]) below 1 µM.
Turning to `Cc1oc2ccc(OCc3cccnc3OC(F)F)cc2c1C(=O)N[C@@H](CO)C(N)=O` [compound 296, (S)-N-(1-amino-3-hydroxy-1-oxopropan-2-yl)-5-((2-(difluoromethoxy)pyridin-3-yl)methoxy)-2-methylbenzofuran-3-carboxamide], in assay [1] (PS 50 μM, cpds 200-299), the IC50 was below 1 µM.
`Cc1oc2ccc(OCc3cccnc3)cc2c1C(=O)N[C@H]1CCNC1` [compound 022, (S)-2-methyl-5-(pyridin-3-ylmethoxy)-N-(pyrrolidin-3-yl)benzofuran-3-carboxamide] returned an IC50 in assay [1] (setting [3]) below 1 µM.
Take `Cc1cc(COc2ccc3oc(C)c(C(=O)N[C@@H](CO)C(N)=O)c3c2)no1` [compound 289, (S)-N-(1-amino-3-hydroxy-1-oxopropan-2-yl)-2-methyl-5-((5-methylisoxazol-3-yl)methoxy)benzofuran-3-carboxamide]: the IC50 in assay [1] (PS 50 μM, cpds 200-299) is below 1 µM.
On to `Cc1oc2ccc(OCc3cnccc3Cl)cc2c1C(=O)NC1CCNCC1(F)F` (centres unmarked) [compound 068, 5-((4-chloropyridin-3-yl)methoxy)-N-(3,3-difluoropiperidin-4-yl)-2-methylbenzofuran-3-carboxamide], for which the IC50 in assay [1] (setting [3]) was below 1 µM.
`Cc1oc2ccc(OCc3ccccn3)cc2c1C(=O)N[C@H](C)CO` [compound 493, (R)-N-(1-hydroxypropan-2-yl)-2-methyl-5-(pyridin-2-ylmethoxy)benzofuran-3-carboxamide] gave an IC50 in assay [1] (setting [5]) below 1 µM.
Take `Cc1oc2ccc(OCc3nccn3C)cc2c1C(=O)NC(C)(C)CO` [compound 481, N-(1-hydroxy-2-methylpropan-2-yl)-2-methyl-5-((1-methyl-1H-imidazol-2-yl)methoxy)benzofuran-3-carboxamide]: the IC50 in assay [1] (setting [5]) is below 1 µM.
The compound `Cc1ncc(COc2ccc3oc(C)c(C(=O)NC4(CO)COC4)c3c2)s1` [compound 525, N-(3-(hydroxymethyl)oxetan-3-yl)-2-methyl-5-((2-methylthiazol-5-yl)methoxy)benzofuran-3-carboxamide] had an IC50 in assay [1] (setting [2]) below 1 µM.
`Cc1oc2ccc(OCc3ncccc3C(F)F)cc2c1C(=O)N[C@@H](CO)C(N)=O` [compound 301, (S)-N-(1-amino-3-hydroxy-1-oxopropan-2-yl)-5-((3-(difluoromethyl)pyridin-2-yl)methoxy)-2-methylbenzofuran-3-carboxamide] displayed an IC50 in assay [1] (PS 50 μM, cpds 300-399) below 1 µM.
As for `Cc1oc2ccc(OCc3ccc(OCCO)cn3)cc2c1C(=O)NC1(CO)CCOCC1` [compound 358, 5-((5-(2-hydroxyethoxy)pyridin-2-yl)methoxy)-N-(4-(hydroxymethyl)tetrahydro-2H-pyran-4-yl) -2-methylbenzofuran-3-carboxamide], the IC50 in assay [1] (PS 50 μM, cpds 300-399) was above 20 µM.
On to `Cc1oc2ccc(OCc3cccnc3)cc2c1C(=O)NC1(CO)CCOCC1` [compound 625, N-(4-(hydroxymethyl)tetrahydro-2H-pyran-4-yl)-2-methyl-5-(pyridin-3-ylmethoxy)benzofuran-3-carboxamide], for which, in assay [1] (setting [6]), the IC50 was below 1 µM.
`COc1ncccc1COc1ccc2oc(C)c(C(=O)NC3CCN(C)CC3)c2c1` [compound 051, 5-((2-methoxypyridin-3-yl)methoxy)-2-methyl-N-(1-methylpiperidin-4-yl)benzofuran-3-carboxamide] returned an IC50 in assay [1] (setting [3]) below 1 µM.
Consider `Cc1ncc(COc2ccc3oc(C)c(C(=O)NC(C)(CO)C(N)=O)c3c2)o1` (single isomer, unassigned) [cpd 722-En 1], for which, in assay [1] (setting [4]), the IC50 is below 1 µM.
For the compound `Cc1ccc(COc2ccc3oc(C)c(C(=O)NC4(CO)CCOCC4)c3c2)nn1` [compound 621, N-(4-(hydroxymethyl)tetrahydro-2H-pyran-4-yl)-2-methyl-5-((6-methylpyridazin-3-yl)methoxy)benzofuran-3-carboxamide], in assay [1] (setting [6]), the IC50 is above 20 µM.
Regarding `Cc1oc2ccc(OCc3cccnc3C(F)(F)F)cc2c1C(=O)NC1CCNCC1(F)F` (single isomer, unassigned) [cpd 539-En 2], the IC50 in assay [1] (setting [2]) was below 1 µM.
Take `Cc1nc(C)c(COc2ccc3oc(C)c(C(=O)N[C@H](C(N)=O)[C@@H](C)O)c3c2)s1` [compound 382, N-((2S,3R)-1-amino-3-hydroxy-1-oxobutan-2-yl)-5-((2,4-dimethylthiazol-5-yl)methoxy)-2-methylbenzofuran-3-carboxamide]: the IC50 in assay [1] (PS 50 μM, cpds 300-399) is below 1 µM.
`Cc1oc2cc(C#N)c(OCc3cccnc3C(F)(F)F)cc2c1C(=O)NC1CCNCC1(F)F` (single isomer, unassigned) [195-En 2, 6-cyano-N-(3,3-difluoropiperidin-4-yl)-2-methyl-5-((2-(trifluoromethyl)pyridin-3-yl)methoxy) -benzofuran-3-carboxamide] yielded an IC50 in assay [1] (setting [3]) above 20 µM.
In the case of `Cc1oc2ccc(OCc3cccnc3C(F)(F)F)cc2c1C(=O)NC1CNCCC1(F)F` (single isomer, unassigned) [cpd 111-En 1], the IC50 in assay [1] (setting [3]) is below 1 µM.
`Cc1ncsc1COc1ccc2oc(C)c(C(=O)Nc3ccnn3C)c2c1` [compound 171, 2-methyl-N-(1-methyl-1H-pyrazol-5-yl)-5-((4-methylthiazol-5-yl)methoxy)benzofuran-3-carboxamide]: in assay [1] (setting [3]), the IC50 is below 1 µM.
On the same count and under the same terms, the figure for `Cc1ncsc1COc1ccc2oc(C)c(C(=O)Nc3cn[nH]c3)c2c1` [compound 150, 2-methyl-5-((4-methylthiazol-5-yl)methoxy)-N-(1H-pyrazol-4-yl)benzofuran-3-carboxamide] is below 1 µM.
On to `Cc1ncsc1COc1ccc2oc(C)c(C(=O)NC3(CO)CCCOC3)c2c1` (single isomer, unassigned) [cpd 532-En 1], for which the IC50 in assay [1] (setting [2]) is below 1 µM.
In the case of `Cc1ncc(COc2ccc3oc(C)c(C(=O)N[C@@H](CO)C(=O)N(C)C)c3c2)s1` [compound 278, (S)-N-(1-(dimethylamino)-3-hydroxy-1-oxopropan-2-yl)-2-methyl-5-((2-methylthiazol-5-yl)methoxy)benzofuran-3-carboxamide], the IC50 in assay [1] (PS 50 μM, cpds 200-299) was below 1 µM.
With `COc1ncccc1COc1ccc2oc(C)c(C(=O)NC3(C(N)=O)CCC3)c2c1` [compound 474, N-(1-carbamoylcyclobutyl)-5-((2-methoxypyridin-3-yl)methoxy)-2-methylbenzofuran-3-carboxamide], in assay [1] (setting [5]), the IC50 is below 1 µM.

As a reminder, the IC50 is the point on the concentration scale where inhibition reaches its midpoint. Lower therefore signals greater potency in that assay.
